# Reference: US20130144250A1, “IMPLANTABLE DRUG DELIVERY COMPOSITIONS AND METHODS OF TREATMENT THEREOF” (Endo Pharmaceuticals Solutions Inc., priority 2011, published 2013)
# Structures can show the parent of a compound that is named as a salt. Where two headings read alike, the source gives them in different places.
# Tests used:
# [1] = In vitro elution of the API from implants in an elution bath of 0.9% saline at 37° C., exchanges analyzed by HPLC; assay type: physicochemical
# Protocol: The testing method set forth in the examples to determine the elution rates for the respective actives included placing the implants in an elution bath consisting of 50 mL 0.9% saline at 37° C. Weekly exchanges of the elution media were analyzed by HPLC for the durations given.
# A drug implant was manufactured as described in Example 1 using an aliphatic, polyether-based polyurethane (TECOFLEX® EG-93A polyurethane) as the tubing material. […] Nine pellets of the anastrozole blend were then placed inside the tubing. A total of about 370 mg anastrozole per implant was used. The implants were sterilized by gamma irradiation and placed in an elution bath of 0.9% saline (50 mL) at 37° C. Regular exchanges of the elution media were analyzed by HPLC for over 400 days.
# Implants D and E were then tested for in vitro elution, as described in Example 2.
# The implants were sterilized by gamma irradiation and placed in an elution bath of 0.9% saline (200 mL) at 37° C.
# Drug containing pellets were manufactured as described in Example 1, and the polymeric sorption enhancer croscarmellose sodium was added to the drug blend. Nine pellets of a drug blend with various concentrations of anastrozole and croscarmellose, with the remainder being 2% stearic acid as lubricant, were placed into a polyurethane tubing (TECOFLEX® EG-93A). The implants were sterilized by gamma irradiation and placed in an elution batch consisting of 50 mL saline at 37° C. Weekly exchanges of the elution media were analyzed by HPLC for 13 weeks.
# Drug containing pellets were manufactured as described in Example 1, and the polymeric sorption enhancer croscarmellose sodium was added to the drug blend. […] The implants were sterilized by gamma irradiation and placed in an elution batch consisting of 500 mL saline at 37° C. Weekly exchanges of the elution media were analyzed by HPLC for 11 weeks.
# A total of about 250 mg fingolimod were loaded into the implants with 10% croscarmellose and 2% stearic acid. The implants were sterilized by gamma irradiation and placed in an elution batch consisting of 800 mL 0.9% saline at 37° C. Weekly exchanges of the elution media were analyzed by HPLC for up to 30 weeks.
# The drug implants were manufactured as described in Example 26 using TECOFLEX® EG-80A, TECOFLEX® EG-85A, TECOFLEX® EG-93A, TECOFLEX® EG-100A, TECOFLEX® EG-65D, or TECOFLEX® EG-68D polyurethanes as the tubing materials and varenicline tartrate as the API. […] A total of about 350 mg varenicline tartrate were loaded into each implant with 10% croscarmellose and 2% stearic acid. The implants were sterilized by gamma irradiation and placed in an elution batch consisting of 200 mL 0.9% saline at 37° C. Weekly exchanges of the elution media were analyzed by HPLC for up to 11 weeks.
# The drug implant was manufactured as described in Example 26 using TECOFLEX® EG-93A polyurethane as the tubing material and varenicline free base as the API. […] A total of about is 250 mg varenicline free base were loaded into the implant with 10% croscarmellose and 2% stearic acid. The implant was sterilized by gamma irradiation and placed in an elution batch consisting of 100 mL 0.9% saline at 37° C.
# estrogen formation [2] = conditions: indirect effect model with sigmoidal inhibitory drug effect
# estrogen formation [3] = assay: animal or person; conditions: Homo sapiens, read-out: EC50 (concentration achieving half-maximal response)
# [4] = cited from earlier work
# [5] = human, in vivo, po
compound,measurement,setting,value
"CC(C)(C#N)c1cc(Cn2cncn2)cc(C(C)(C)C#N)c1 [Anastrozole, anastrozole]",duration of pseudo-zero order elution rate,"[1]; FIG. 4, aliphatic polyether-based urethane implant (Example 2)",over 400 days
same,duration of pseudo-zero order elution,"[1]; FIG. 8, polyether-based polyurethane excipient",over one year
same,"elution profile, 9 pellets versus 7 pellets",[1]; FIG. 10,higher elution profile
same,duration of pseudo-zero order elution rate,"[1]; FIG. 13, 10% sorption enhancer (croscarmellose)",over 80 days
same,duration of pseudo-zero order elution rate,"[1]; FIG. 14, 10% sodium carboxymethyl starch",over 80 days
same,duration of pseudo-zero order elution rate,"[1]; FIG. 14, 10% sodium starch glycolate",over 80 days
same,drug release rate on increasing sodium polyacrylate from 10% to 14% of the drug blend,[1]; TECOFLEX EG-93A,increased the drug release rate
same,elution rate,"[1]; TECOFLEX EG-93A implant, 2% croscarmellose, 50 mL saline",about 250 μg/day
same,elution rate,"[1]; TECOFLEX EG-93A implant, 10% croscarmellose, 50 mL saline",about 850 μg/day
same,release with increased load into the implant,"[1]; TECOFLEX EG-93A, about 125 mg to about 540 mg per implant, over 70 days",linear release
same,drug release compared to no added sorption enhancer,"[1]; TECOFLEX EG-93A, even the smallest percentage of croscarmellose sodium",increased the drug release
same,drug release compared to no added sorption enhancer,"[1]; TECOFLEX EG-93A, sodium polyacrylate",increased the drug release
same,Hill coefficient of the concentration response curve on estrogen,estrogen formation [2],0.455
same,EC50,estrogen formation [3],0.000565 ng/mL
same,Bioavailability,[4]; oral dosage,80-85%
"O=C1CCc2ccc(OCCCCN3CCN(c4cccc(Cl)c4Cl)CC3)cc2N1 [Aripiprazole, aripiprazole]",Bioavailability,[4]; oral dosage,85%
"C[C@]12C=CC(=O)N[C@@H]1CC[C@@H]1[C@@H]2CC[C@]2(C)[C@@H](C(=O)Nc3cc(C(F)(F)F)ccc3C(F)(F)F)CC[C@@H]12 [Dutasteride, dutasteride]",Bioavailability,[4]; oral dosage,~60%
"Nc1nc2ncc(CNc3ccc(C(=O)N[C@@H](CCC(=O)O)C(=O)O)cc3)nc2c(=O)[nH]1 [Folic acid, folic acid]",Bioavailability,[4]; oral dosage,60%
"N#Cc1ccc(C(c2ccc(C#N)cc2)n2cncn2)cc1 [Letrozole, letrozole]",Bioavailability,[4]; oral dosage,99%
"CCN(CC)CC#CCOC(=O)C(O)(c1ccccc1)C1CCCCC1 (stereo not drawn) [Oxybutynin HCl, oxybutynin hydrochloride]",release rates from implants,"[1]; TECOFLEX EG-80A and EG-85A implants, oxybutynin HCl",suitable release rates
same,elution from implants,"[1]; TECOFLEX EG-93A, TECOPHILIC HP-60D-05 and HP-60D-10 implants, oxybutynin HCl",failed to elute
"Cc1nc2n(c(=O)c1CCN1CCC(c3noc4cc(F)ccc34)CC1)CCCC2O (stereo not drawn) [Paliperidone, paliperidone]",Bioavailability,[4]; oral dosage,28%
"Cc1nc2n(c(=O)c1CCN1CCC(c3noc4cc(F)ccc34)CC1)CCCC2 [Risperidone, 4-[2-[4-(6-fluorobenzo[d]isoxazol-3-yl)-1-piperidyl]ethyl]-3-methyl-2,6-diazabicyclo[4.4.0]deca-1,3-dien-5-one]",elution rate,"[1]; TECOFLEX EG-80A implant, 2% croscarmellose, 500 mL saline, week 2","about 1,450 μg/day"
same,elution rate,"[1]; TECOFLEX EG-80A implant, 2% croscarmellose, 500 mL saline, week 11",about 850 μg/day
same,elution rate,"[1]; TECOFLEX EG-80A implant, 12% croscarmellose, 500 mL saline, week 2","about 1,800 μg/day"
same,elution rate,"[1]; TECOFLEX EG-80A implant, 12% croscarmellose, 500 mL saline, week 11","about 1,400 μg/day"
same,daily elution rates with a sorption enhancer in comparison to an implant without,"[1]; TECOFLEX EG-80A, 10% croscarmellose vs none, 200 mL saline",significantly higher
same,drug release compared to no added sorption enhancer,"[1]; TECOFLEX EG-80A, 10% polyethylene oxide, sodium polyacrylate or chondroitin sulfate",increased the drug release
same,drug release compared to no added sorption enhancer,"[1]; TECOFLEX EG-80A, 10% sodium carboxymethyl cellulose",increased the drug release
same,drug release compared to no added sorption enhancer,"[1]; TECOFLEX EG-80A, even the smallest percentage of croscarmellose sodium",increased the drug release
same,time of peak active moiety plasma concentration following administration,[5],≤ 3 h
"CCN(C)C(=O)Oc1cccc([C@H](C)N(C)C)c1 [Rivastigmine Tartrate, rivastigmine tartrate]",Bioavailability,[4]; oral dosage,35%
"CCCN(CCc1cccs1)[C@H]1CCc2c(O)cccc2C1 [Rotigotine, rotigotine]",Bioavailability,[4]; transdermal,35%
"C#CCN(C)[C@H](C)Cc1ccccc1 [Selegiline HCl, selegiline HCl]",Bioavailability,[4]; buccal 1.25 mg/day,90%
"Cc1ccc(O)c([C@H](CCN(C(C)C)C(C)C)c2ccccc2)c1 [Tolterodine Tartrate, tolterodine tartrate]",Bioavailability,[4]; oral dosage,~75%
"CCN(CC)CC#CCOC(=O)C(O)(c1ccccc1)C1CCCCC1 (stereo not drawn) [oxybutynin free base, oxybutynin]",elution from implants,"[1]; TECOFLEX EG-80A and EG-85A implants, oxybutynin free base",essentially streamed out
same,release rates from implants,"[1]; TECOFLEX EG-93A, TECOPHILIC HP-60D-05 and HP-60D-10 implants, oxybutynin free base",suitable and controllable release rates
same,Bioavailability,[4]; oral dosage,~6%
"c1cnc2cc3c(cc2n1)[C@@H]1CNC[C@H]3C1 [varenicline free base, varenicline]",release rate,"[1]; TECOFLEX EG-93A implant, 100 mL saline","about 1,750 μg/day"
same,elution rates in vitro in comparison to the salt form,[1]; free base vs HCl or tartrate salt,higher and more stable
varenicline tartrate,drug release from implants,"[1]; TECOFLEX EG-80A and EG-85A implants, after a long incubation phase",released but without any control over the release
same,drug release from implants,"[1]; TECOFLEX EG-93A, EG-100A, EG-65D and EG-68D implants, 200 mL saline",no drug was released
